US20250281483A1, “TRANSCRIPTION FACTOR EB ACTIVATORS AND USES THEREOF” (Astellas Engineered Small Molecules US, Incorporated, priority 2022, published 2025)

Target: T1, TFEB (Homo sapiens, UniProt P19484)
T1 sequence (P19484 1-476): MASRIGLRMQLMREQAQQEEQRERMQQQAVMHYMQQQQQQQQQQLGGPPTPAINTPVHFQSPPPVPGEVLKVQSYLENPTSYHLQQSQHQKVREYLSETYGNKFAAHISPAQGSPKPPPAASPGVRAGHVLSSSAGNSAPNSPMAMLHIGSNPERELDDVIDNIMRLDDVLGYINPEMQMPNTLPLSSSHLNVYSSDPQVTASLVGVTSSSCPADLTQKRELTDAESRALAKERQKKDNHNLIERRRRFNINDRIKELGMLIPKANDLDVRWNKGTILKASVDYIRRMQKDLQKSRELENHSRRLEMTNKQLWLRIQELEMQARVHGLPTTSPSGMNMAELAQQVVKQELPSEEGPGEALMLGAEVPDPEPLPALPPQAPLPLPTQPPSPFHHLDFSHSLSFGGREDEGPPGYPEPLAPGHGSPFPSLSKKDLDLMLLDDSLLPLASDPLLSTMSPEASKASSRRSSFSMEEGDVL
Assay: Tfeb-Translocation Assay HEK-293T-oEX-Tfeb-GFP Cell Line
Format: cell-based
Settings: HEK-293T-oEX-TFEB-GFP cells; translocation positive cells ratio; read-out: TFEB Translocation EC50
Experimental: Tfeb-Translocation Assay HEK-293T-oEX-Tfeb-GFP Cell Line
• 1). Added 2×10^6 cell into a T75 flask with 15 mL DiVEM medium (with 10% FBS, 1% PS, 1×GLUTAMAX, 1×MEM NEAA, 1×HEPES Buffer Solution and 5 ug/mL blasticidin). • 2). Culturing for 48-72 hours. Cells in logarithmic growth phase were taken for experiment. The other cells were passaged as described in step 1. • 3). Seeded 1×10^4 cells/30 μL/well into 384-well plate (BD 356663). Cultured overnight at 37° C. & 5% CO2 incubator. • 4). Note: Used cells <10 passage
• 1). Compounds were firstly diluted by DMSO to the stock needed (10 mM), and aliquoted and stored at −20° C. • 2). Took one aliquot each time and made 3-fold or 2-fold dilutions as indicated, total 10 doses plus one DMSO control well in the source plate. • 3). Added 150 or 90 nL/well compounds solution to the assay plate by ECHO and incubated for 6 or 18 hours respectively at 37° C. & 5% CO2 incubator.
• 1). Added 30 uL 8% PFA into the wells and incubated 20 min at room temperature. • 2). Discarded the medium, washed the wells twice with DPBS to eliminate foam and bubbles in the well.
• 1). Diluted Hoechest-333824 in DPBS to get 2 μg/mL solution and added 30 uL/well into assay plate, incubated at room temperature for 20 mins. • 2). Discarded the supernatant, washed the wells twice with DPBS to eliminate foam and bubbles in the well. Then added DPBS 20 uL/well.
3). Scanned Plate by Operetta.
• 1). Reference compound: Torin 1 • 2). Test compounds: C1, C2, C3, C4, C5, C6. • 3). Diluted compounds in 384 LDV-dilution plate according to the dilution plate map • 4). Compounds starting concentration: Torin 1: 300 nM and Test compounds: 50 uM.
• 1). Selected all nucleus by Operetta as ‘All Cells’ • 2). Calculated the EGFP average intensity inside the Nucleus region. • 3). Selected population that the EGFP mean intensity inside the Nucleus region>background as the EGFP-positive cells • 4). Selected the Surrounding region of the nucleus and calculated the EGFP mean intensity of the region • 5). Inside the EGFP-positive cell population, selected the cells with EGFP mean intensity inside the Nucleus region/the EGFP mean intensity inside the surrounding region=1.2 (This ratio could be slightly adjusted from time to time) as the Translocation positive cell. • 6). Outputted the ratio of Translocation positive cell/EGFP-positive cells as the Translocation Positive Ratio. • 7). Each time set the ratio of DMSO group (Control Group) as ˜15% and then normalized the compound group to the DMSO group.

Molecule | EC50 [nM]
6-benzyl-2-methyl-N-((4-methyloxazol-2-yl)methyl)-5-oxo-5,6-dihydro-1,6-naphthyridine-3-carboxamide [Example 66] | 100 to 1000
Cc1nc2ccn(Cc3cccnc3)c(=O)c2cc1C(=O)NCc1ccc(Cl)cc1 [Comparator 1, reference compound] | 1000 to 10000
Cc1ccc(CNC(=O)c2cc3c(=O)n(Cc4ccc(F)cn4)ccc3nc2C)o1 [Example 2, 6-((5-fluoropyridin-2-yl)methyl)-2-methyl-N-((5-methylfuran-2-yl)methyl)-5-oxo-5,6-dihydro-1,6-naphthyridine-3-carboxamide] | 100 to 1000
Cc1cnc(CNC(=O)c2cc3c(=O)n(Cc4ccccc4)ccc3nc2C)o1 [Example 3, 6-benzyl-2-methyl-N-((5-methyloxazol-2-yl)methyl)-5-oxo-5,6-dihydro-1,6-naphthyridine-3-carboxamide] | 100 to 1000
Cc1ncc(CNC(=O)c2cc3c(=O)n(Cc4ccccc4)ccc3nc2C)o1 [Example 4, 6-benzyl-2-methyl-N-((2-methyloxazol-5-yl)methyl)-5-oxo-5,6-dihydro-1,6-naphthyridine-3-carboxamide] | 100 to 1000
Cc1nc2ccn(Cc3ccccc3)c(=O)c2cc1C(=O)NCc1cn(C)nn1 [Example 8, 6-benzyl-2-methyl-N-((1-methyl-11H-1,2,3-triazol-4-yl)methyl)-5-oxo-5,6-dihydro-1,6-naphthyridine-3-carboxamide] | 1000 to 10000
Cc1nc2ccn(Cc3ccccc3)c(=O)c2cc1C(=O)NCc1cnn(C)n1 [Example 9, 6-benzyl-2-methyl-N-((2-methyl-2H-1,2,3-triazol-4-yl)methyl)-5-oxo-5,6-dihydro-1,6-naphthyridine-3-carboxamide] | 100 to 1000
Cc1noc(CNC(=O)c2cc3c(=O)n(Cc4ccccc4)ccc3nc2C)n1 [Example 10, 6-benzyl-2-methyl-N-((3-methyl-1,2,4-oxadiazol-5-yl)methyl)-5-oxo-5,6-dihydro-1,6-naphthyridine-3-carboxamide] | 100 to 1000
Cc1nc2ccn(CC3CCCO3)c(=O)c2cc1C(=O)NCc1ccc(Cl)cc1 (centres unmarked) [Example 11, N-(4-chlorobenzyl)-2-methyl-5-oxo-6-((tetrahydrofuran-2-yl)methyl)-5,6-dihydro-1,6-naphthyridine-3-carboxamide] | 1000 to 10000
Cc1nc2ccn(Cc3ccccc3)c(=O)c2cc1C(=O)NCc1ccncc1 [Example 12, 6-benzyl-2-methyl-5-oxo-N-(pyridin-4-ylmethyl)-5,6-dihydro-1,6-naphthyridine-3-carboxamide] | 1000 to 10000
Cc1nnc(CNC(=O)c2cc3c(=O)n(Cc4ccccc4)ccc3nc2C)o1 [Example 13, 6-benzyl-2-methyl-N-((5-methyl-1,3,4-oxadiazol-2-yl)methyl)-5-oxo-5,6-dihydro-1,6-naphthyridine-3-carboxamide] | 1000 to 10000
Cc1nc2ccn(Cc3ccccc3)c(=O)c2cc1C(=O)NCc1ccn(C)n1 [Example 14, 6-benzyl-2-methyl-N-((1-methyl-1H-pyrazol-3-yl)methyl)-5-oxo-5,6-dihydro-1,6-naphthyridine-3-carboxamide] | 100 to 1000
Cc1nc2ccn(Cc3ccccc3)c(=O)c2cc1C(=O)NCc1cnn(C)c1 [Example 15, 6-benzyl-2-methyl-N-((1-methyl-1H-pyrazol-4-yl)methyl)-5-oxo-5,6-dihydro-1,6-naphthyridine-3-carboxamide] | 100 to 1000
Cc1nc2ccn(Cc3ccccc3)c(=O)c2cc1C(=O)NCc1ccccc1F [Example 16, 6-benzyl-N-(2-fluorobenzyl)-2-methyl-5-oxo-5,6-dihydro-1,6-naphthyridine-3-carboxamide] | 100 to 1000
Cc1nc(CNC(=O)c2cc3c(=O)n(Cc4ccccc4)ccc3nc2C)no1 [Example 19, 6-benzyl-2-methyl-N-((5-methyl-1,2,4-oxadiazol-3-yl)methyl)-5-oxo-5,6-dihydro-1,6-naphthyridine-3-carboxamide] | 1000 to 10000
COCCn1ccc2nc(C)c(C(=O)NCc3ccc(Cl)cc3)cc2c1=O [Example 20, N-(4-chlorobenzyl)-6-(2-methoxyethyl)-2-methyl-5-oxo-5,6-dihydro-1,6-naphthyridine-3-carboxamide] | 1000 to 10000
COCCn1ccc2nc(C)c(C(=O)NCc3cnc(C)o3)cc2c1=O [Example 21, 6-(2-methoxyethyl)-2-methyl-N-((2-methyloxazol-5-yl)methyl)-5-oxo-5,6-dihydro-1,6-naphthyridine-3-carboxamide] | ≥ 10000
Cc1nc2ccn(Cc3ccccc3)c(=O)c2cc1C(=O)NCc1ccc(Cl)cc1 [Example 22, 6-benzyl-N-(4-chlorobenzyl)-2-methyl-5-oxo-5,6-dihydro-1,6-naphthyridine-3-carboxamide] | < 100
Cc1nc2ccn(Cc3ccccc3)c(=O)c2cc1C(=O)NCc1cccnc1 [Example 23, 6-benzyl-2-methyl-5-oxo-N-(pyridin-3-ylmethyl)-5,6-dihydro-1,6-naphthyridine-3-carboxamide] | 100 to 1000
COc1ccc(CNC(=O)c2cc3c(=O)n(Cc4ccccc4)ccc3nc2C)cc1 [Example 24, 6-benzyl-N-(4-methoxybenzyl)-2-methyl-5-oxo-5,6-dihydro-1,6-naphthyridine-3-carboxamide] | 1000 to 10000
Cc1nc2ccn(Cc3ccccc3)c(=O)c2cc1C(=O)NCc1ccc(C(F)(F)F)cc1 [Example 25, 6-benzyl-2-methyl-5-oxo-N-(4-(trifluoromethyl)benzyl)-5,6-dihydro-1,6-naphthyridine-3-carboxamide] | ≥ 10000
Cc1nc2ccn(CC3CCCCO3)c(=O)c2cc1C(=O)NCc1ccc(Cl)cc1 (centres unmarked) [Example 26, N-(4-chlorobenzyl)-2-methyl-5-oxo-6-((tetrahydro-2H-pyran-2-yl)methyl)-5,6-dihydro-1,6-naphthyridine-3-carboxamide] | 100 to 1000
Cc1nc2ccn(CC3CCO3)c(=O)c2cc1C(=O)NCc1ccc(Cl)cc1 (centres unmarked) [Example 27, N-(4-chlorobenzyl)-2-methyl-6-(oxetan-2-ylmethyl)-5-oxo-5,6-dihydro-1,6-naphthyridine-3-carboxamide] | 1000 to 10000
Cc1nc2ccn(Cc3ccccc3)c(=O)c2cc1C(=O)NC(C)c1ccccn1 (centres unmarked) [Example 28, 6-benzyl-2-methyl-5-oxo-N-(1-(pyridin-2-yl)ethyl)-5,6-dihydro-1,6-naphthyridine-3-carboxamide] | ≥ 10000
Cc1nc2ccn(Cc3ccccc3)c(=O)c2cc1C(=O)NCc1ncccn1 [Example 29, 6-benzyl-2-methyl-5-oxo-N-(pyrimidin-2-ylmethyl)-5,6-dihydro-1,6-naphthyridine-3-carboxamide] | ≥ 10000
COCCn1ccc2nc(C)c(C(=O)NCc3ccccn3)cc2c1=O [Example 30, 6-(2-methoxyethyl)-2-methyl-5-oxo-N-(pyridin-2-ylmethyl)-5,6-dihydro-1,6-naphthyridine-3-carboxamide] | 1000 to 10000
Cc1nc2ccn(Cc3ccccc3)c(=O)c2cc1C(=O)NCc1cnccn1 [Example 32, 6-benzyl-2-methyl-5-oxo-N-(pyrazin-2-ylmethyl)-5,6-dihydro-1,6-naphthyridine-3-carboxamide] | 100 to 1000
Cc1nc2ccn(Cc3ccccc3)c(=O)c2cc1C(=O)NCc1cccnn1 [Example 33, 6-benzyl-2-methyl-5-oxo-N-(pyridazin-3-ylmethyl)-5,6-dihydro-1,6-naphthyridine-3-carboxamide] | 1000 to 10000
Cc1nc2ccn(Cc3ccccc3)c(=O)c2cc1C(=O)NCc1cncnc1 [Example 34, 6-benzyl-2-methyl-5-oxo-N-(pyrimidin-5-ylmethyl)-5,6-dihydro-1,6-naphthyridine-3-carboxamide] | 100 to 1000
